The target of one series is T1, BCL-2 (Homo sapiens, UniProt P10415).
T1 construct: purchased Cisbio 63ADK000CB01PEG
The experiment in a line: HTRF BCL-2/BAK assay (Cisbio). The format is binding. Particulars: recombinant human Tag1-BCL-2 2 nM, Tag2-BAK 10 nM. Here is the method: (§1) Then the pre-mixed anti-Tag1-Eu^3+ and anti-tag2-XL665 were added to the plate and further incubated at room temperature for another 2 hours. The signals ([…]) were read on Envision 2104 instrument. The IC50 for each compound was derived from fitting the signal of 665/615 nM to the increasing compound concentration.
(§2) Using the above assays, the following compounds were tested.
(In general: In TR-FRET formats the signal depends on donor and acceptor labels being close together.)

A further series concerns the target T2, BCL-XL (Homo sapiens, UniProt Q07817).
T2 construct: purchased Cisbio 63ADK000CB04PEG
The experiment in a line: HTRF BCL-XL/BAK assay (Cisbio). Particulars: recombinant human Tag1-BCL-XL 2 nM, Tag2-BAK 5 nM. The format is binding. Here is the method: as §1, §2

The test system of the next series is DOHH2 cells. The experiment in a line: CellTiter-Glo cell proliferation assay, DOHH2 cells. The format is cell-based. Particulars: Homo sapiens, DOHH-2, 72 hours. A digest of the protocol:
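GI50 derived from CellTiter-Glo luminescent viability signal. Cells grown in DMEM with 10% FBS received a compound dilution series for 72 h (37 °C, 5% CO2).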

In series [1] the test system is RS4;11 subcutaneous xenograft tumor. The experiment in a line: In vivo pharmacodynamic study, NOD/SCID RS4;11 subcutaneous xenograft tumor model. Particulars: p.o., q.d., after 20 days dosing. Also on record: species or system NOD/SCID female mouse. As to the method:
In general, NOD/SCID RS4;11 subcutaneous xenograft tumor model was established by inoculating 5*10^6/0.1 ml/mouse subcutaneously in the right back of the NOD/SCID female mouse. The animals were checked daily for any effects of treatments on behaviors such as mobility, food and water consumption, body weight gain/loss, eyes, hairs and any other abnormalities. Mortality and clinical signs observed during the study were recorded in the raw data. Animal weight and tumor size were measured every two days during the study. Tumor volume (TV) was calculated as: TV=0.5*a*b^2, wherein a and b represent the measured length and width of tumor, respectively. Relative tumor proliferation inhibition rate (TGIRTV (%)), as an indication of anti-tumor effectiveness, was calculated as: TGIRTV (%)=(1−TRTV/CRTV)*100%, wherein TRTV and CRTV were relative tumor volume (RTV) in treatment group and vehicle control group, respectively. RTV was calculated as: RTV=Vt/V0, wherein Vt and V0 represented the tumor volume measured on day t after dosing and on the first day of dosing. At the end of last dosing, plasma and tumor tissue were collected, weighed, and photographed according to requirements of the study protocol.
The TGIRTV(%) values after 20 days dosing were shown in Table 5 below, where “+++” represented TGIRTV(%)≥[…]; “++” represented 30%<TGIRTV(%)<80%. p.o. stands for “per os”; I.P. stands for “intraperitoneal”; q.d. refers to “once daily”.

The target of another series is T3, CYP2C9 (Homo sapiens, UniProt P11712).
T3 construct: from tissue; host or cells: human liver microsomes
The experiment in a line: CYP2C9 activity assay in human liver microsomes, substrate diclofenac. It counts as in vitro ADME. Particulars: probe diclofenac, test compound 1 μM, 37° C. 10 min, read-out: Inhibition rate (%) against CYP2C9 Enzyme. As to the method:
In this assay, several exemplary compounds of the present disclosure and a control compound (Venetoclax) were used as the test compounds. In general, the assay was conducted by the following steps: • 1. The solution of test compound, human liver microsomes solution, and substrate (diclofenac) solution were mixed in a 96-well assay plate on ice to, and the final concentration of each test compound is 1 μM; • 2. The 96-well assay plate and NADPH solution were pre-incubated at 37° C. for 5 minutes; • 3. NADPH solution was added to into the assay plates to initiate the reaction; • 4. The assay plate was incubated at 37° C. for 10 min; • 5. The reaction was stopped; and after quenching, a portion of the supernatant was taken from each well for LC/MS analysis; • 6. The inhibition rate was calculated by the following equation: Inhibition rate (%)=(1−Valuetest/Valuecontrol)×100%, where Valuetest refers to the LC/MS data obtained from wells with test compounds and Valuecontrol refers to the LC/MS data obtained from wells without test compound.

Some results are limits rather than exact numbers.

T1 sequence (P10415 whole entry): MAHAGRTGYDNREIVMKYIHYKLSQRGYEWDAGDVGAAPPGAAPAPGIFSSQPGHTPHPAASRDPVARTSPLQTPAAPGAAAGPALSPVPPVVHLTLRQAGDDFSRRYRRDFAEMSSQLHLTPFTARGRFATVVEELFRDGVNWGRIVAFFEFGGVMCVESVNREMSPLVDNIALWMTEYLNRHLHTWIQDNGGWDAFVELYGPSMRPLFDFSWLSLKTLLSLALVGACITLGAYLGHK
T3 sequence (P11712 whole entry): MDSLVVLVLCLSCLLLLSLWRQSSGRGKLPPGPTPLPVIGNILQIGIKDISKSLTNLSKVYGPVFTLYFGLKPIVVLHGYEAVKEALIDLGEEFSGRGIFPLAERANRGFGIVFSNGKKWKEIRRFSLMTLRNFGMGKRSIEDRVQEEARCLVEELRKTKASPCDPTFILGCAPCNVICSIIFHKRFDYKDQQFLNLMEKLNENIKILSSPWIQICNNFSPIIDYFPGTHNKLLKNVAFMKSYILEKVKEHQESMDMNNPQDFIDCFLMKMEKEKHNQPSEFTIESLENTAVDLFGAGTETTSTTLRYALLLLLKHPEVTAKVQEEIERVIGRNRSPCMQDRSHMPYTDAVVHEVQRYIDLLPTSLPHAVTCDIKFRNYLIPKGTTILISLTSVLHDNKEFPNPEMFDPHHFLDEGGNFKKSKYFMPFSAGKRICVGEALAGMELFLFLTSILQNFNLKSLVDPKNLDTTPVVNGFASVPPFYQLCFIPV
T2 sequence (Q07817 whole entry): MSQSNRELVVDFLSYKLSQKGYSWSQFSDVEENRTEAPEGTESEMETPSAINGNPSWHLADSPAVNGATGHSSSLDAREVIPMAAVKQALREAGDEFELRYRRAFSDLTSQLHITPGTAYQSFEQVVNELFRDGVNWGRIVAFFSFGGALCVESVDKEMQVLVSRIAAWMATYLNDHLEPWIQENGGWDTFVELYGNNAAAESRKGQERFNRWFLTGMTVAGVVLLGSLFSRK

On to `O=C(NS(=O)(=O)c1ccc(NCCN2CCOCC2)c([N+](=O)[O-])c1)c1ccc(N2CCN(C3CCCCc4c(Cl)cccc43)CC2)cc1Oc1cnc2[nH]ccc2c1` (stereo not shown) [Compound 31, 2-((1H-pyrrolo[2,3-b]pyridin-5-yl)oxy)-4-(4-(1-chloro-6,7,8,9-tetrahydro-5H-benzo[7]annulen-5-yl)piperazin-1-yl)-N-((4-((2-morpholinoethyl)amino)-3-nitrophenyl)sulfonyl)benzamide], for which the IC50 (usually the concentration needed to halve the response being measured) at BCL-2 was below 20 nM; on BCL-XL it was 20 to 200 nM. Moreover, the GI50 (as a rule, the concentration at which growth is held to half of that of the control) with DOHH2 cells was below 50 nM. Besides, in series [1] (25 mg/kg), the “TGIRTV(%)” value is given as “++ (30%<TGIRTV(%)<80%)”.
`CC(C)(C)OC(=O)N1CCC2(CC1)CC(CNc1ccc(S(=O)(=O)NC(=O)c3ccc(N4CCN([C@@H]5CCCCc6c(Cl)cccc65)CC4)cc3Oc3cnc4[nH]ccc4c3)cc1[N+](=O)[O-])C2` [Compound 100, tert-butyl (R)-2-(((4-(N-(2-((1H-pyrrolo[2,3-b]pyridin-5-yl)oxy)-4-(4-(1-chloro-6,7,8,9-tetrahydro-5H-benzo[7]annulen-5-yl)piperazin-1-yl)benzoyl)sulfamoyl)-2-nitrophenyl)amino)methyl)-7-azaspiro[3.5]nonane-7-carboxylate]: the IC50 at BCL-2 is below 20 nM; at BCL-XL, 200 to 2000 nM. The inhibition (usually the relative decrease from the control value, in per cent) at 10 min, 1 µM on CYP2C9 was below 30%. The GI50 with DOHH2 cells was in the range of 50 to 500 nM.
Regarding `CN1CCC2(CC1)CC(CNc1ccc(S(=O)(=O)NC(=O)c3ccc(N4CCN([C@@H]5CCCCc6c(Cl)cccc65)CC4)cc3Oc3cnc4[nH]ccc4c3)cc1[N+](=O)[O-])C2` [Compound 108, (R)-2-((1H-pyrrolo[2,3-b]pyridin-5-yl)oxy)-4-(4-(1-chloro-6,7,8,9-tetrahydro-5H-benzo[7]annulen-5-yl)piperazin-1-yl)-N-((4-(((7-methyl-7-azaspiro[3.5]nonan-2-yl)methyl)amino)-3-nitrophenyl)sulfonyl)benzamide], the IC50 at BCL-2 and on BCL-XL was below 20 nM throughout. Also, the inhibition at 10 min, 1 µM at CYP2C9 was below 30%. The GI50 in the series on DOHH2 cells is below 50 nM.
`CC1(C)CCC(CN2CCN(c3ccc(C(=O)NS(=O)(=O)c4ccc(NCC5CCOCC5)c([N+](=O)[O-])c4)c(Oc4cnc5[nH]ccc5c4)c3)CC2)=C(c2ccc(Cl)cc2)C1` [Venetoclax, reference compound]: at CYP2C9, the inhibition at 10 min, 1 µM came out at 49%.
As for `CS(=O)(=O)N1CCC2(CC1)CC(CNc1ccc(S(=O)(=O)NC(=O)c3ccc(N4CCN([C@@H]5CCCCc6c(Cl)cccc65)CC4)cc3Oc3cnc4[nH]ccc4c3)cc1[N+](=O)[O-])C2` [Compound 107, (R)-2-((1H-pyrrolo[2,3-b]pyridin-5-yl)oxy)-4-(4-(1-chloro-6,7,8,9-tetrahydro-5H-benzo[7]annulen-5-yl)piperazin-1-yl)-N-((4-(((7-(methylsulfonyl)-7-azaspiro[3.5]nonan-2-yl)methyl)amino)-3-nitrophenyl)sulfonyl)benzamide], the IC50 at BCL-2 is below 20 nM; at BCL-XL, 20 to 200 nM. On CYP2C9, the inhibition at 10 min, 1 µM worked out at 31%. Further, the GI50 in the series on DOHH2 cells is below 50 nM.
On to `CC(=O)NCCN1CCC2(CC1)CC(CNc1ccc(S(=O)(=O)NC(=O)c3ccc(N4CCN([C@@H]5CCCCc6c(Cl)cccc65)CC4)cc3Oc3cnc4[nH]ccc4c3)cc1[N+](=O)[O-])C2` [Compound 112, (R)-2-((1H-pyrrolo[2,3-b]pyridin-5-yl)oxy)-N-((4-(((7-(2-acetamidoethyl)-7-azaspiro[3.5]nonan-2-yl)methyl)amino)-3-nitrophenyl)sulfonyl)-4-(4-(1-chloro-6,7,8,9-tetrahydro-5H-benzo[7]annulen-5-yl)piperazin-1-yl)benzamide], for which the IC50 on BCL-2 and at BCL-XL was below 20 nM in each case. The inhibition at 10 min, 1 µM at CYP2C9 stood at 33%. This compound yielded a GI50 with DOHH2 cells below 50 nM.
For the compound `O=C(NS(=O)(=O)c1ccc(NCC2CCOCC2)c([N+](=O)[O-])c1)c1ccc(N2CCN([C@@H]3CCCCc4c(Cl)cccc43)CC2)cc1Oc1cnc2[nH]ccc2c1` [Compound 70, (R)-2-((1H-pyrrolo[2,3-b]pyridin-5-yl)oxy)-4-(4-(1-chloro-6,7,8,9-tetrahydro-5H-benzo[7]annulen-5-yl)piperazin-1-yl)-N-((3-nitro-4-(((tetrahydro-2H-pyran-4-yl)methyl)amino)phenyl)sulfonyl)benzamide], the IC50 on BCL-2 is below 20 nM. For the same compound, in the series on DOHH2 cells, the GI50 is below 50 nM. In series [1] (60 mg/kg), the “TGIRTV(%)” value is recorded as “+++ (TGIRTV(%)≥800)”.
For `O=C(NS(=O)(=O)c1ccc(NCC2CCOCC2)c([N+](=O)[O-])c1)c1ccc(N2CCC3(CC2)CN(C2CCCc4ccccc42)C3)cc1Oc1cnc2[nH]ccc2c1` (stereo not shown) [Compound 94, 2-((1H-pyrrolo[2,3-b]pyridin-5-yl)oxy)-N-((3-nitro-4-(((tetrahydro-2H-pyran-4-yl)methyl)amino)phenyl)sulfonyl)-4-(2-(1,2,3,4-tetrahydronaphthalen-1-yl)-2,7-diazaspiro[3.5]nonan-7-yl)benzamide], the IC50 on BCL-2 is below 20 nM. Further, the inhibition at 10 min, 1 µM at CYP2C9 was below 30%. The compound further yielded a GI50 with DOHH2 cells of 500 to 5000 nM.
As for `O=C(NS(=O)(=O)c1ccc(NCC2CC3(CCN(CC(F)(F)F)CC3)C2)c([N+](=O)[O-])c1)c1ccc(N2CCN([C@@H]3CCCCc4c(Cl)cccc43)CC2)cc1Oc1cnc2[nH]ccc2c1` [Compound 115, (R)-2-((1H-pyrrolo[2,3-b]pyridin-5-yl)oxy)-4-(4-(1-chloro-6,7,8,9-tetrahydro-5H-benzo[7]annulen-5-yl)piperazin-1-yl)-N-((3-nitro-4-(((7-(2,2,2-trifluoroethyl)-7-azaspiro[3.5]nonan-2-yl)methyl)amino)phenyl)sulfonyl)benzamide], the IC50 at BCL-2 is below 20 nM; at BCL-XL it was 200 to 2000 nM. The inhibition at 10 min, 1 µM at CYP2C9 was below 30%. In addition, in the series with DOHH2 cells, the GI50 lay in the range of 50 to 500 nM.
As to `O=C(NS(=O)(=O)c1ccc(NCC2CCOCC2)c([N+](=O)[O-])c1)c1ccc(N2CCN(C3CCCCc4ccc(Cl)cc43)CC2)cc1Oc1cnc2[nH]ccc2c1` (stereo not shown) [Compound 26, 2-((1H-pyrrolo[2,3-b]pyridin-5-yl)oxy)-4-(4-(3-chloro-6,7,8,9-tetrahydro-5H-benzo[7]annulen-5-yl)piperazin-1-yl)-N-((3-nitro-4-(((tetrahydro-2H-pyran-4-yl)methyl)amino)phenyl)sulfonyl)benzamide], the IC50 on BCL-2 was below 20 nM; on BCL-XL, above 2000 nM. Moreover, the GI50 with DOHH2 cells was 50 to 500 nM.
In the same order, the values of `O=C(NS(=O)(=O)c1ccc(NCC2CCC3(CC2)COC3)c([N+](=O)[O-])c1)c1ccc(N2CCN([C@@H]3CCCCc4c(Cl)cccc43)CC2)cc1Oc1cnc2[nH]ccc2c1` [Compound 71, (R)-2-((1H-pyrrolo[2,3-b]pyridin-5-yl)oxy)-N-((4-(((2-oxaspiro[3.5]nonan-7-yl)methyl)amino)-3-nitrophenyl)sulfonyl)-4-(4-(1-chloro-6,7,8,9-tetrahydro-5H-benzo[7]annulen-5-yl)piperazin-1-yl)benzamide] are below 20 nM, 20 to 200 nM and below 50 nM.
As to `O=C(NS(=O)(=O)c1ccc(NCC2CCOCC2)c([N+](=O)[O-])c1)c1ccc(N2CCN(C3CCCCc4c(-c5cccnc5)cccc43)CC2)cc1Oc1cnc2[nH]ccc2c1` (stereo not shown) [Compound 49, 2-((1H-pyrrolo[2,3-b]pyridin-5-yl)oxy)-N-((3-nitro-4-(((tetrahydro-2H-pyran-4-yl)methyl)amino)phenyl)sulfonyl)-4-(4-(1-(pyridin-3-yl)-6,7,8,9-tetrahydro-5H-benzo[7]annulen-5-yl)piperazin-1-yl)benzamide], the IC50 on BCL-2 is below 20 nM; on BCL-XL, 200 to 2000 nM. The compound further showed a GI50 in the series on DOHH2 cells of 500 to 5000 nM.

Values taken from patent US20240239792A1, “MODULATORS OF BCL-2 OR BCL-2/BCL-XL AND USES THEREOF” (APPICINE THERAPEUTICS (HK) LIMITED, priority 2021, published 2024).
